# Assays:
# HOP-62 = assay: cells; details: Homo sapiens, HOP-62, 48 h
# EKVX = assay: cells; details: Homo sapiens, 48 h
# Prostate Cancer subpanel = assay: cells
# In short: (§1)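 NCI DTP 60-line screen; 10^−4–10^−8 M, 48 h; SRB read-out vs untreated controls. GI50/TGI/LC50 per line; SI = full-panel MG_MID / subpanel MG_MID.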
# CNS Cancer subpanel = assay: cells
# In short: as §1
# Leukemia subpanel = assay: cells
# In short: as §1
# Renal Cancer subpanel = assay: cells
# In short: as §1
# Breast Cancer subpanel = assay: cells
# In short: as §1
# [1] = tested on: Non-Small Cell Lung Cancer subpanel; assay: cells
# In short: as §1
# Colon Cancer subpanel = assay: cells
# In short: as §1
# Melanoma subpanel = assay: cells
# In short: as §1
# Ovarian Cancer subpanel = assay: cells
# In short: as §1
# RPMI-8226 = RPMI-8226 (Leukemia), 48 h, SRB
# HT-29 = assay: NCI DTP 60 cell line screen, SRB
# LOX IMVI = assay: cells; details: Homo sapiens, 48 h
# M14 = assay: NCI DTP 60 cell line screen, SRB
# OVCAR-5 = assay: NCI DTP 60 cell line screen, SRB
# SK-MEL-2 [2] = assay: cells; details: Homo sapiens, SK-MEL-2, 48 h
# SK-MEL-2 [3] = details: SK-MEL-2 (Melanoma), 48 h, SRB
# NCI/ADR-Res = assay: NCI DTP 60 cell line screen, SRB; details: 48 h
# OVCAR-4 = assay: NCI DTP 60 cell line screen, SRB
# [4] = Homo sapiens, read-out: MG_MID, GI50
# [5] = Homo sapiens, read-out: MG_MID, LC50
# [6] = full panel MG_MID / Prostate Cancer subpanel MG_MID
# [7] = full panel MG_MID / CNS Cancer subpanel MG_MID
# [8] = full panel MG_MID / Leukemia subpanel MG_MID
# [9] = full panel MG_MID / Renal Cancer subpanel MG_MID
# [10] = full panel MG_MID / Breast Cancer subpanel MG_MID
# [11] = full panel MG_MID / Non-Small Cell Lung Cancer subpanel MG_MID
# [12] = full panel MG_MID / Colon Cancer subpanel MG_MID
# [13] = full panel MG_MID / Melanoma subpanel MG_MID
# [14] = full panel MG_MID / Ovarian Cancer subpanel MG_MID
structure (smiles),measurement,setting,value
"O=C1NC(=S)S/C1=C\C(Cl)=C\c1ccc([N+](=O)[O-])cc1 [Compound 2b, 5-[(Z,2Z)-2-Chloro-3-(4-nitrophenyl)-2-propenylidene]-2-thioxo-4-thiazolidinone]",GI50,HOP-62,15.4 µM
same,CC50,HOP-62; read-out: LC50,> 50 µM
same,GI50,EKVX,2760 nM
same,CC50,EKVX; read-out: LC50,> 50 µM
same,GI50,Prostate Cancer subpanel; [4],5.89 µM
same,CC50,Prostate Cancer subpanel; [5],39.2 µM
same,"MG_MID, TGI",Prostate Cancer subpanel; Prostate Cancer panel mean,32.1 µM
same,"SI (selectivity index), GI50",Prostate Cancer subpanel; [6],0.81
same,"SI (selectivity index), LC50",Prostate Cancer subpanel; [6],1.11
same,"SI (selectivity index), TGI",Prostate Cancer subpanel; [6],0.63
same,"MG_MID, TGI",CNS Cancer subpanel; CNS Cancer panel mean,22.4 µM
same,GI50,CNS Cancer subpanel; [4],6.98 µM
same,CC50,CNS Cancer subpanel; [5],45.4 µM
same,"SI (selectivity index), GI50",CNS Cancer subpanel; [7],0.69
same,"SI (selectivity index), LC50",CNS Cancer subpanel; [7],0.96
same,"SI (selectivity index), TGI",CNS Cancer subpanel; [7],0.91
same,GI50,Leukemia subpanel; [4],1510 nM
same,CC50,Leukemia subpanel; [5],> 50 µM
same,"MG_MID, TGI",Leukemia subpanel; Leukemia panel mean,20.2 µM
same,"SI (selectivity index), GI50",Leukemia subpanel; [8],3.17
same,"SI (selectivity index), LC50",Leukemia subpanel; [8],<0.87
same,"SI (selectivity index), TGI",Leukemia subpanel; [8],1.00
same,GI50,Renal Cancer subpanel; [4],6.23 µM
same,CC50,Renal Cancer subpanel; [5],42.9 µM
same,"MG_MID, TGI",Renal Cancer subpanel; Renal Cancer panel mean,18.7 µM
same,"SI (selectivity index), GI50",Renal Cancer subpanel; [9],0.77
same,"SI (selectivity index), LC50",Renal Cancer subpanel; [9],1.01
same,"SI (selectivity index), TGI",Renal Cancer subpanel; [9],1.09
same,"MG_MID, TGI",Breast Cancer subpanel; Breast Cancer panel mean,28.4 µM
same,GI50,Breast Cancer subpanel; [4],4.38 µM
same,CC50,Breast Cancer subpanel; [5],46.7 µM
same,"SI (selectivity index), GI50",Breast Cancer subpanel; [10],1.09
same,"SI (selectivity index), LC50",Breast Cancer subpanel; [10],0.93
same,"SI (selectivity index), TGI",Breast Cancer subpanel; [10],0.71
same,GI50,[1]; [4],3.79 µM
same,CC50,[1]; [5],48.6 µM
same,"MG_MID, TGI",[1]; Non-Small Cell Lung Cancer panel mean,29.7 µM
same,"SI (selectivity index), GI50",[1]; [11],1.26
same,"SI (selectivity index), LC50",[1]; [11],0.90
same,"SI (selectivity index), TGI",[1]; [11],0.68
same,"MG_MID, TGI",Colon Cancer subpanel; Colon Cancer panel mean,11.5 µM
same,GI50,Colon Cancer subpanel; [4],3.27 µM
same,CC50,Colon Cancer subpanel; [5],35.4 µM
same,"SI (selectivity index), GI50",Colon Cancer subpanel; [12],1.46
same,"SI (selectivity index), LC50",Colon Cancer subpanel; [12],1.23
same,"SI (selectivity index), TGI",Colon Cancer subpanel; [12],1.77
same,GI50,Melanoma subpanel; [4],5.57 µM
same,CC50,Melanoma subpanel; [5],36.8 µM
same,"MG_MID, TGI",Melanoma subpanel; Melanoma panel mean,16.1 µM
same,"SI (selectivity index), GI50",Melanoma subpanel; [13],0.86
same,"SI (selectivity index), LC50",Melanoma subpanel; [13],1.18
same,"SI (selectivity index), TGI",Melanoma subpanel; [13],1.26
same,GI50,Ovarian Cancer subpanel; [4],6.68 µM
same,CC50,Ovarian Cancer subpanel; [5],42.8 µM
same,"MG_MID, TGI",Ovarian Cancer subpanel; Ovarian Cancer panel mean,21.0 µM
same,"SI (selectivity index), GI50",Ovarian Cancer subpanel; [14],0.72
same,"SI (selectivity index), LC50",Ovarian Cancer subpanel; [14],1.02
same,"SI (selectivity index), TGI",Ovarian Cancer subpanel; [14],0.97
same,TGI,RPMI-8226,20.6 µM
same,TGI,"HT-29; HT-29 (Colon Cancer), 48 h, SRB",9.48 µM
same,GI50,"HT-29; Homo sapiens, HT-29, 48 h",1480 nM
same,CC50,"HT-29; Homo sapiens, HT-29, 48 h, read-out: LC50",> 50 µM
same,GI50,LOX IMVI,6.6 µM
same,CC50,LOX IMVI; read-out: LC50,36 µM
same,GI50,"M14; Homo sapiens, M14, 48 h",8.87 µM
same,CC50,"M14; Homo sapiens, M14, 48 h, read-out: LC50",> 50 µM
same,TGI,"M14; M14 (Melanoma), 48 h, SRB",32.2 µM
same,GI50,"OVCAR-5; Homo sapiens, OVCAR-5, 48 h",11.1 µM
same,CC50,"OVCAR-5; Homo sapiens, OVCAR-5, 48 h, read-out: LC50",32.4 µM
same,TGI,"OVCAR-5; OVCAR-5 (Ovarian Cancer), 48 h, SRB",19.5 µM
same,GI50,SK-MEL-2 [2],8.07 µM
same,CC50,SK-MEL-2 [2]; read-out: LC50,> 50 µM
same,TGI,SK-MEL-2 [3],26.9 µM
same,GI50,"NCI/ADR-Res; Homo sapiens, NCI/ADR-RES",5.71 µM
same,CC50,"NCI/ADR-Res; Homo sapiens, NCI/ADR-RES, read-out: LC50",> 50 µM
same,TGI,"NCI/ADR-Res; NCI/ADR-Res (Breast Cancer), SRB",18.3 µM
same,GI50,"OVCAR-4; Homo sapiens, OVCAR-4, 48 h",1950 nM
same,CC50,"OVCAR-4; Homo sapiens, OVCAR-4, 48 h, read-out: LC50",> 50 µM
same,TGI,"OVCAR-4; OVCAR-4 (Ovarian Cancer), 48 h, SRB",11.7 µM

# Source: PMC8161026, “Synthesis and Anticancer Activity Evaluation of 5-[2-Chloro-3-(4-nitrophenyl)-2-propenylidene]-4-thiazolidinones” (Molecules, 2021)
